Measured values published in patent US8658373B2, “Method of screening for an agent for treating arthritis and promoting growth of articular chondrocytes” (Kazuwa Nakao, priority 2004, dated 2014).
Entries after “also recorded” stand apart in the source; their conditions may differ. Bridges are numbered along the chain shown (N, C = ends). Where no end group is shown, it is not given here.

Tests used:
[1] = tested on: collagenase OA mouse model (right knee joint); assay: Combined effect of NSAID and CNP in collagenase OA model; type: in vivo; details: 7 days
Protocol: An osmotic […]) containing the solutions below was transplanted subcutaneously in the back of a 9-week-old male C57BL/6 J strain mouse. • Solvent: Distilled water containing 5% dextrose (Junsei Chemical Co., Ltd., Japan), 10% mannose (Nacalai Tesque Inc., Japan) and 5 mmol/L hydrochloric acid (Wako Pure Chemical Industries, Japan). • 1 μg/mL solution (6 ng/day) of CNP-22 (Calbiochem Novabiochem). In addition, to examine the effect of the NSAID indomethacin (Sigma) when used alone and in combination with the CNP, an indomethacin suspension in 0.2% carboxymethyl cellulose (Nacalai Tesque Inc., Japan) was administered orally in a forced manner at 1 mg/kg once a day for 4 successive days from the date of pump transplantation described above. On the date of pump transplantation and the following day, 6 μL of 0.15% type II collagenase (Sigma) and 6 μL of 1.5% type II collagenase solutions, respectively, were injected into the right knee joint, the breadth of both the right and left knee joints was measured daily with a slide caliper (Mitutoyo Corp., Japan) for 7 days after injection, and the difference between the right and left knee joints was calculated. This difference represented the swelling of knee joints, and the AUC was compared between the solvent control and CNP groups by the Student's t-test (SAS ver. 6.12).

[2] = tested on: mouse bone marrow macrophages (BMM); details: stimulation of mouse BMM with LPS; cited from earlier work
[3] = tested on: blood thromboxane B2 (TXB2) level; details: LPS administration in mice; cited from earlier work
[4] = tested on: collagenase OA mouse model (right knee joint); assay: Therapeutic effect of CNP infusion on collagenase osteoarthritic mouse model; type: in vivo; details: for AUC of knee joint swelling (difference between right and left knee joint breadth) vs solvent control: 1.5% collagenase, 28 days; for swelling of the right knee joint vs solvent control: 6 days following 1.5% collagenase
Protocol: An osmotic pump (2004 model, Durect) containing the solutions below was transplanted subcutaneously in the back of a 9-week-old male C57BL/6 J strain mouse. • Solvent: Distilled water containing 5% dextrose (Junsei Chemical Co., Ltd., Japan), 10% mannose (Nacalai Tesque Inc., Japan) and 5 mmol/L hydrochloric acid (Wako Pure Chemical Industries, Japan). • 10 μg/mL solution (60 ng/day) of CNP-22 (Calbiochem Novabiochem). • 100 μg/mL solution (600 ng/day) of CNP-22 (Calbiochem Novabiochem.).
Six days after transplantation, 6 μL of 1.5% type II collagenase (Sigma) solution was injected into the right knee joint, the breadth of both the right and left knee joints was measured on time with a slide caliper (Mitutoyo Corp., Japan) for 28 days after injection, and the difference between the right and left knee joints was calculated. This difference represented the swelling of knee joints, and the AUC was compared between the solvent control and CNP groups by the Student's t-test (SAS ver. 6.12). […] Hematoxylin-eosin-stained and safranin O-stained samples were prepared according to the method as described in Example 5, and analyzed histopathologically.

[5] = tested on: surgical OA mouse model (right knee joint); assay: Therapeutic effect of CNP infusion on surgical OA mouse model; type: in vivo; details: 4, 8 and 11 days postoperatively
Protocol: An osmotic pump (2004 model, Durect) containing the solutions below was transplanted subcutaneously in the back of a 9-week-old male C57BL/6 J strain mouse (CLEA Japan, Japan). • Solvent: Distilled water containing 5% dextrose (Junsei Chemical Co., Ltd., Japan), 10% mannose (Nacalai Tesque Inc., Japan) and 5 mmol/L hydrochloric acid (Wako Pure Chemical Industries, Japan). • […] solution (60 ng/day) of CNP-22 (Calbiochem Novabiochem). • […] solution (600 ng/day) of CNP-22 (Calbiochem Novabiochem).
On the following day of transplantation, the mouse was anesthetized with ether and subjected to the surgical procedures of anterocrucial ligament excision, medial collateral ligament excision and medial meniscus total resection in the right knee joint to induce osteoarthritis. The breadth of both the right and left knee joints was measured on time with a slide caliper (Mitutoyo Corp.) for 11 days after administration, and the difference between the right and left knee joints was calculated. This difference represented the swelling of knee joints, and the AUC was compared between the solvent control and CNP groups by the Student's t-test (SAS Preclinical Package, SAS Institute Japan, Japan).

[6] = tested on: collagen arthritis rat model; assay: Effect of CNPs on collagen arthritis rat model; type: in vivo; details: CNP-22 6 μg/day, days 21, 24 and 28 from antigen sensitization
Protocol: An osmotic pump (2004 model, Durect) containing the solutions below was transplanted subcutaneously in the back of a 10-week-old female DA/Slc strain rat (Japan SLC, Inc., Japan). • Solvent: Distilled water containing 5% dextrose (Junsei Chemical Co., Ltd., Japan), 10% mannose (Nacalai Tesque Inc., Japan) and 5 mmol/L hydrochloric acid (Wako Pure Chemical Industries, Japan). • 1 mg/mL solution (6 μg/day) of CNP-22 (Calbiochem Novabiochem).
Immediately after transplantation, bovine type II collagen (Collagen Technology Training Co., Japan) was dissolved in 0.1 mol/L aqueous acetic acid so as to make 1.5 mg/mL and suspended in an equal volume of Freund Incomplete Adjuvant (DIFCO LABORATORIES), and 400 μL of the suspension was inoculated into the skin on the back of a rat. Changes in body weight were also measured on a daily basis. In addition, changes in body weight were also measured in a normal group receiving neither pump transplantation nor inoculation.

[7] = tested on: adjuvant arthritis rat model; assay: Effect of CNPs on adjuvant arthritis rat model; type: in vivo; details: CNP-22 60 ng/day; for arthritis score of the limb ends vs solvent control: osmotic pump subcutaneous; for body weight vs solvent control: days 7 and 10 from antigen sensitization
[8] = CNP-22 60 ng/day continuous subcutaneous
[9] = CNP-22 600 ng/day continuous subcutaneous

With `COc1ccc2c(c1)c(CC(=O)O)c(C)n2C(=O)c1ccc(Cl)cc1` [indomethacin] the “swelling of knee joints (AUC) vs solvent control” value ([1]; indomethacin 1 mg/kg oral once a day for 4 days, alone) was “not inhibitory; also recorded: did not”.
In the case of “ANP: atrial sodium peptide, a natriuretic peptide acting via NPR-A (SLRRSSCFGGRMDRIGAQSGLGCNSFRY; ends and bridges not checked; cysteine pairing not given here; UniProt P01160 124-151, looked up) [reference compound]”, the “inhibitory effect on the enhancement of PGE2 production” value [2] is listed as “up to 70%” and the “effect on LPS-increased blood TXB2 level” value [3] is listed as “inhibitory effect”.
In the case of “Gly Leu Ser Lys Gly Cys Phe Gly Leu Lys Leu Asp Arg Ile Gly Ser Met Ser Gly Leu Gly Cys (GLSKGCFGLKLDRIGSMSGLGC; disulfide 6-22; listed as Homo sapiens) [CNP-22, CNP-22 (Calbiochem Novabiochem) used in the tests]”, the “inhibitory effect on the enhancement of PGE2 production” value [2] is given as “up to 20%”, the “synovial cell growth, granulation and inflammatory cell infiltration in the synovial membrane (histopathology)” value ([4]; CNP group vs solvent control, collagenase-induced) is given as “remarkably reduced” and the “degeneration of the articular cartilage” value ([4]; CNP group, osmotic pump infusion) is given as “significantly reduced”. The “AUC of knee joint swelling (difference between right and left knee joint breadth) vs solvent control” value ([4]; CNP-22 60 ng/day continuous subcutaneous (osmotic pump)) was “significantly lower”, the “swelling of the right knee joint vs solvent control” value [4, 8] was “significantly inhibited” and the “AUC of knee joint swelling (difference between right and left knee joint breadth) vs solvent control” value ([4]; CNP-22 600 ng/day continuous subcutaneous (osmotic pump)) was “significantly lower”. For the same molecule, the “swelling of the right knee joint vs solvent control” value [4, 9] was “significantly inhibited”, the “AUC of knee joint swelling vs solvent control” value [5, 8] was “significantly lower; also recorded: significantly inhibited” and the “AUC of knee joint swelling vs solvent control” value [5, 9] was “significantly lower; also recorded: significantly inhibited”. For the same molecule, the “body weight (body weight loss) vs solvent control” value [6] was “significantly heavy”, the “body weight (body weight loss) vs solvent control” value ([6]; listed as CNP) was “significantly smaller” and the “arthritis score of the limb ends vs solvent control” value [7] was “lower”. For the same molecule, the “arthritis score of the limb ends vs solvent control” value ([7]; listed as CNP) was “somewhat lower”, the “body weight vs solvent control” value [7] was “significantly heavy” and the “body weight vs solvent control” value ([7]; listed as CNP) was “increased significantly”. For the same molecule, the “swelling of knee joints (AUC) vs solvent control” value ([1]; CNP-22 6 ng/day continuous subcutaneous alone) was “significantly inhibited”.
